From US10604514B2, “6-(5-membered heteroaryl)isoquinolin-3-yl carboxamides and preparation and use thereof” (Samumed, LLC, priority 2017, dated 2020) come the findings set out here.

Like-named read-outs stand apart in the source and are kept apart here.

Test [1] deals with Wnt activity (Sp5-Luc reporter in SW480 colon carcinoma cells). Description: Wnt activity screening assay (Sp5-Luc reporter gene assay). It is filed as cell-based, human. To be noted: for EC50: Sp5-Luc reporter, SW480 cells, 36 to 48 hours; for inhibition at 10 µM: SW480, read-out: percent inhibition at 10 μM. In a few lines: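 Compounds at 10 points (1:3 steps, top 10 μM, 0.1% DMSO final) were incubated 36 to 48 h at 37° C with stable Sp5-Luc SW480 reporter cells in 1% FBS medium. Luciferase luminescence was then read and expressed relative to DMSO-only cells. Four-parameter variable-slope fitting yielded EC50 values.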

Test [2] deals with DYRK1A kinase (Homo sapiens (Human), UniProt Q13627). Description: DYRK1A kinase assay (Ser/Thr 18 peptide Z-lyte, FRET). To be noted: DYRK1A kinase; method text calls the value IC50.
For test [3], the target named is GSK3β kinase (Homo sapiens (Human), UniProt P49841). Kind of test: GSK3β kinase assay (Ser/Thr 09 peptide Z-lyte, FRET).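 Further: Coumarin/fluorescein emission ratio converted to percent phosphorylation against unphosphorylated (0%) and phosphorylated (100%) controls, 1 h compound incubation at room temperature, 11-point threefold dilutions from 10 µM, run in duplicate.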 Type of test: biochemical. To be noted: method text calls the value IC50.
GSK3β kinase, sequence (P49841 whole entry): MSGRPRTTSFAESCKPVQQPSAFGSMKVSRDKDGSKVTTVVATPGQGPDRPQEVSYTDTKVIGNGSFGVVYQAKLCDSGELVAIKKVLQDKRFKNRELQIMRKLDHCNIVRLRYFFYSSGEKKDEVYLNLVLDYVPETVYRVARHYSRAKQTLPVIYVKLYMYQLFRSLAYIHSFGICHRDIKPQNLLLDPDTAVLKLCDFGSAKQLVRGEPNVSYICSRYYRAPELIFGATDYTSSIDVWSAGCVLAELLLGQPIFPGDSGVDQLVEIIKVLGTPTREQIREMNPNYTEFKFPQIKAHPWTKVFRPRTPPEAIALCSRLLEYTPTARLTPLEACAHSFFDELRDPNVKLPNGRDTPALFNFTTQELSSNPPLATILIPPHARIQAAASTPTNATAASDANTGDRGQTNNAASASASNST
Protocol: Representative compounds were screened using the assay procedure for GSK30 kinase activity as described below.
Each compound is dissolved in DMSO as a 10 mM stock and used to prepare compound source plates. Serial dilution (1:3, 11-point dose-response curves from 10 M to 0.0003 μM) and compound transfer was performed using the ECHO 550 (Labcyte, Sunnyvale, Calif.) into 1536-well black-walled round bottom plates (Corning).
This is a non-radioactive assay using fluorescence resonance energy transfer (FRET) between coumarin and fluorescein to detect kinase activity which is represented as ratio of coumarin emission/fluorescein emission.
The mixture is allowed to incubate with the representative compounds for one hour at room temperature. All reactions were performed in duplicate. Unphosphorylated (“0% Control”) and phosphorylated (“100% control”) forms of Ser/Thr 18 serve as control reactions.
After incubation, diluted Development Buffer is added to the reaction and allowed to further incubate for one hour at room temperature.
The percent phosphorylation is then calculated using the following formula: [1−((Em ratio×F100%)−C100%)/((C0%−C100%)+(Em ratio×(F100%−F0%)))].
Dose-response curves are generated and inhibitory concentration (IC50) values are calculated using non-linear regression curve fit in the Dotmatics' Studies Software (Bishops Stortford, UK).
Test [4] has as its system IL-6. Kind of test: IL-6 inhibition in LPS-stimulated human peripheral blood mononuclear cells (HTRF). It is filed as cell-based. The note with it: for inhibition at 10 µM: read-out: percent value in parentheses below EC50 >10; for EC50: IL-6, LPS-stimulated huPBMCs, HTRF. In a few lines:
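EC50 from a 4-parameter fit of DMSO-normalized HTRF (665/620 nm) IL-6 signal, duplicates. Compound was added to fresh human PBMCs in 1% FBS RPMI for 2 h (top 10 μM, 3-fold, 0.25% DMSO) before 22 h stimulation with LPS at 50 ng/mL, 37 °C.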
Background: In TR-FRET formats the signal depends on donor and acceptor labels being close together.

For test [5], the system named is SW480 colon carcinoma cells. Description: Cell viability assay (CellTiter-Glo) in SW480 cells.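 On all read-outs here: SW480 cells stably carrying an Sp5-luciferase TCF/LEF reporter, luminescent ATP signal as viability measure, DMSO-treated cells as control.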 Type of test: cell-based, human. The note with it: for EC50: cell viability, SW480 cells, four days, CellTiter-Glo; for inhibition at 10 µM: SW480, read-out: percent inhibition at 10 μM.
Test [6] deals with Tau phosphorylation at Ser396 (pSer396), SH-SY5Y cells. Kind of test: Tau phosphorylation at Ser396 (pSer396) in SH-SY5Y cells, ELISA/western blot.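 Further: cell lysates probed for reduced Tau pSer396 via ELISA (colorimetric) or western blot (chemiluminescence), both with one shared pSer396 antibody, EC50 for lowering phosphorylation.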 It is filed as cell-based, human. To be noted: SH-SY5Y cells, overnight (16-18 h), read-out: pSer396 Tau EC50. (In an ELISA, binding on a coated surface is turned into a signal by an enzyme label.)
The subject of test [7] is LL29 cells (primary human fibroblasts derived from IPF patients), α-smooth muscle actin. Description: Inhibition of fibrotic process: αSMA in TGF-β1-treated primary human fibroblasts from IPF patients (LL29 cells). It is filed as cell-based. To be noted: for EC50: % αSMA-positive LL29 cells, TGF-β1 20 ng/mL, 4 days; for inhibition at 10 µM: read-out: percent inhibition at 10 μM. In a few lines: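 Read-out is the percentage of αSMA-positive cells by high-content imaging, excluding SYTOX green-positive dead/apoptotic cells, normalized to TGF-β1-only wells on the same plate. LL29 cells were exposed for 4 days at 37 °C to 20 ng/mL TGF-β1 plus 11-point, 2-fold compound dilutions in 0.1% DMSO.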

Regarding `Cn1cnnc1-c1ccc2cnc(NC(=O)CN3CCOCC3)cc2c1` [Compound 14, N-(6-(4-Methyl-4H-1,2,4-triazol-3-yl)isoquinolin-3-yl)-2-morpholinoacetamide], the EC50 – broadly, the concentration at which the effect is half-maximal – is 5350 nM in test [1] (Homo sapiens); 33 nM in test [2]; 48 nM in test [3]; above 10000 nM in test [4] (Homo sapiens, PBMC); 5550 nM in test [5] (Homo sapiens, 96 h); 382 nM in test [6] (Homo sapiens). Also, in test [7] (Homo sapiens, Fibroblast, 96 h), it took 1380 nM to reach a half-maximal effect (EC50). For the same molecule, the inhibition at 10 µM in test [4] (Homo sapiens, PBMC) amounted to 12.5%.

`Cc1nnc(-c2ccc3cnc(NC(=O)CN4CCOCC4)cc3c2)n1C` [Compound 15, N-(6-(4,5-Dimethyl-4H-1,2,4-triazol-3-yl)isoquinolin-3-yl)-2-morpholinoacetamide]: the inhibition at 10 µM in test [1] (Homo sapiens) was found to be 40.1%; in test [4] (Homo sapiens, PBMC), 15.8%; in test [5] (Homo sapiens), 38%. The EC50 in test [1] (Homo sapiens) is above 10000 nM; in test [2], 61 nM; in test [3] it was 59 nM; in test [4] (Homo sapiens, PBMC), above 10000 nM; in test [5] (Homo sapiens, 96 h) it was above 10000 nM; in test [6] (Homo sapiens), 981 nM. For the same molecule, in test [7] (Homo sapiens, Fibroblast, 96 h), the EC50 was found to be 896 nM.

Take `CN[C@H]1CC[C@H](C(=O)Nc2cc3cc(-c4cnc(C)o4)ccc3cn2)CC1` [Compound 16, trans-4-(Methylamino)-N-(6-(2-methyloxazol-5-yl)isoquinolin-3-yl) cyclohexane-1-carboxamide]: the EC50 was found to be 1460 nM in test [1] (Homo sapiens); 5 nM in test [2]; 122 nM in test [3]; 1040 nM in test [4] (Homo sapiens, PBMC); 808 nM in test [5] (Homo sapiens, 96 h); 286 nM in test [6] (Homo sapiens). The molecule also came in with a concentration giving a half-maximal response (EC50) in test [7] (Homo sapiens, Fibroblast, 96 h) of 172 nM.

Turning to `Cc1ncc(-c2cc(F)c3cnc(NC(=O)[C@H]4CC[C@H](N(C)C)CC4)cc3c2)o1` [Compound 17, trans-4-(Dimethylamino)-N-(8-fluoro-6-(2-methyloxazol-5-yl)isoquinolin-3-yl)cyclohexane-1-carboxamide], the EC50 is 4100 nM in test [1] (Homo sapiens); 18 nM in test [2]; 188 nM in test [3]; 3440 nM in test [4] (Homo sapiens, PBMC); 6910 nM in test [5] (Homo sapiens, 96 h); 743 nM in test [6] (Homo sapiens). Moreover, the EC50 in test [7] (Homo sapiens, Fibroblast, 96 h) was found to be 1430 nM.

With `Cc1ncc(-c2cc3cc(NC(=O)[C@H]4CC[C@H](N(C)C)CC4)ncc3cc2F)o1` [Compound 18, trans-4-(Dimethylamino)-N-(7-fluoro-6-(2-methyloxazol-5-yl)isoquinolin-3-yl)cyclohexane-1-carboxamide], the half-maximal effective concentration (EC50) in test [1] (Homo sapiens) was found to be 671 nM; in test [2] it was 3 nM; in test [3], 68 nM; in test [4] (Homo sapiens, PBMC) it was 1250 nM; in test [5] (Homo sapiens, 96 h), 587 nM; in test [6] (Homo sapiens), 186 nM. Further, in test [7] (Homo sapiens, Fibroblast, 96 h), the EC50 was determined as 149 nM.

`Cc1ncc(-c2ccc3cnc(NC(=O)C4CCN(CC(C)(F)F)CC4)cc3c2)o1` [Compound 20, 1-(2,2-Difluoropropyl)-N-(6-(2-methyloxazol-5-yl)isoquinolin-3-yl) piperidine-4-carboxamide]: the 50% effective concentration (EC50) is 2640 nM in test [1]; 5 nM in test [2]; 41 nM in test [3]; above 10000 nM in test [4]; 3070 nM in test [5]; 524 nM in test [6]. This molecule also displayed an EC50 in test [7] of 480 nM. The “percent inhibition of IL-6 at 10 µM” value in test [4] is recorded as “(13.4%)”.

Take `Cc1nnc(-c2ccc3cnc(NC(=O)[C@H]4CC[C@H](N)CC4)cc3c2)s1` [Compound 21, trans-4-Amino-N-(6-(5-methyl-1,3,4-thiadiazol-2-yl)isoquinolin-3-yl) cyclohexane-1-carboxamide]: the concentration for a half-maximal effect (EC50) in test [1] (Homo sapiens) turned out to be 657 nM; in test [2] it was 6 nM; in test [3] it was 35 nM; in test [4] (Homo sapiens, PBMC) it was 9370 nM; in test [5] (Homo sapiens, 96 h), 1060 nM; in test [6] (Homo sapiens), 566 nM. In test [7] (Homo sapiens, Fibroblast, 96 h), this molecule gave a concentration for a half-maximal effect (EC50) of 340 nM.

Take `Cc1nnc(-c2ccc3cnc(NC(=O)[C@H]4CC[C@H](N5CCOCC5)CC4)cc3c2)s1` [Compound 23, trans-N-(6-(5-Methyl-1,3,4-thiadiazol-2-yl)isoquinolin-3-yl)-4-morpholinocyclohexane-1-carboxamide]: the concentration giving a half-maximal response (EC50) in test [1] (Homo sapiens) turned out to be 725 nM; in test [2], 4 nM; in test [3], 17 nM; in test [4] (Homo sapiens, PBMC), 9370 nM; in test [5] (Homo sapiens, 96 h), 2120 nM; in test [6] (Homo sapiens) it was 161 nM. Also, a half-maximal response in test [7] (Homo sapiens, Fibroblast, 96 h) (EC50) required 489 nM.

In the case of `Cc1nnc(-c2ccc3cnc(NC(=O)C4CCNCC4)cc3c2)s1` [Compound 24, N-(6-(5-Methyl-1,3,4-thiadiazol-2-yl)isoquinolin-3-yl)piperidine-4-carboxamide], the EC50 in test [1] (Homo sapiens) worked out at 1190 nM; in test [2] it was 7 nM; in test [3] it was 30 nM; in test [4] (Homo sapiens, PBMC), 8810 nM; in test [5] (Homo sapiens, 96 h), 3640 nM; in test [6] (Homo sapiens), 127 nM. For the same molecule, a half-maximal effect in test [7] (Homo sapiens, Fibroblast, 96 h) (EC50) was put at 573 nM.

As to `Cc1nnc(-c2ccc3cnc(NC(=O)C4(F)CCNCC4)cc3c2)s1` [Compound 25, 4-Fluoro-N-(6-(5-methyl-1,3,4-thiadiazol-2-yl)isoquinolin-3-yl)piperidine-4-carboxamide], the inhibition at 10 µM in test [1] (Homo sapiens) amounted to 34.3%; in test [4] (Homo sapiens, PBMC), 8%; in test [5] (Homo sapiens) it was 40.3%. The EC50 in test [1] (Homo sapiens) is above 10000 nM; in test [2], 14 nM; in test [3], 313 nM; in test [4] (Homo sapiens, PBMC), above 10000 nM; in test [5] (Homo sapiens, 96 h), above 10000 nM; in test [6] (Homo sapiens) it was 430 nM. The molecule also yielded an EC50 in test [7] (Homo sapiens, Fibroblast, 96 h) of 3870 nM.

In the case of `Cc1nnc(-c2ccc3cnc(NC(=O)C4(F)CCN(C)CC4)cc3c2)s1` [Compound 26, 4-Fluoro-1-methyl-N-(6-(5-methyl-1,3,4-thiadiazol-2-yl)isoquinolin-3-yl) piperidine-4-carboxamide], the concentration for a half-maximal effect (EC50) in test [1] (Homo sapiens) was 6950 nM; in test [2] it was 38 nM; in test [3], 524 nM; in test [4] (Homo sapiens, PBMC), above 10000 nM; in test [5] (Homo sapiens, 96 h), 8530 nM; in test [6] (Homo sapiens), 167 nM. For the same molecule, the concentration giving a half-maximal response (EC50) in test [7] (Homo sapiens, Fibroblast, 96 h) is above 10000 nM. Further, the inhibition at 10 µM in test [4] (Homo sapiens, PBMC) is 5.6%; in test [7] (Homo sapiens, Fibroblast) it was 48.4%.

For `Cc1nnc(-c2ccc3cnc(NC(=O)C4CCN(CC(F)F)CC4)cc3c2)s1` [Compound 27, 1-(2,2-Difluoroethyl)-N-(6-(5-methyl-1,3,4-thiadiazol-2-yl)isoquinolin-3-yl)piperidine-4-carboxamide], the 50% effective concentration (EC50) in test [1] (Homo sapiens) is 927 nM; in test [2], 6 nM; in test [3], 11 nM; in test [4] (Homo sapiens, PBMC), above 10000 nM; in test [5] (Homo sapiens, 96 h), 2090 nM; in test [6] (Homo sapiens), 104 nM. Besides, the concentration giving a half-maximal response (EC50) in test [7] (Homo sapiens, Fibroblast, 96 h) came out at 235 nM. For the same molecule, the inhibition at 10 µM in test [4] (Homo sapiens, PBMC) worked out at 2.8%.

In the case of `Cc1nnc(-c2ccc3cnc(NC(=O)C4CCN(CC(C)(F)F)CC4)cc3c2)s1` [Compound 28, 1-(2,2-Difluoropropyl)-N-(6-(5-methyl-1,3,4-thiadiazol-2-yl)isoquinolin-3-yl)piperidine-4-carboxamide], the EC50 in test [1] (Homo sapiens) is 1110 nM; in test [2], 4 nM; in test [3], 8 nM; in test [4] (Homo sapiens, PBMC) it was above 10000 nM; in test [5] (Homo sapiens, 96 h) it was above 10000 nM; in test [6] (Homo sapiens), 89 nM. The same molecule gave an EC50 in test [7] (Homo sapiens, Fibroblast, 96 h) of 448 nM. Moreover, the inhibition at 10 µM was determined as 4.3% in test [4] (Homo sapiens, PBMC) and 37.8% in test [5] (Homo sapiens).

`Cc1nnc(-c2ccc3cnc(NC(=O)N(C)C4CCN(C)CC4)cc3c2)s1` [Compound 29, 1-Methyl-3-(6-(5-methyl-1,3,4-thiadiazol-2-yl)isoquinolin-3-yl)-1-(1-methylpiperidin-4-yl)urea]: the inhibition at 10 µM in test [1] (Homo sapiens) was 45.6%; in test [4] (Homo sapiens, PBMC), 6%; in test [5] (Homo sapiens), 28.2%; in test [7] (Homo sapiens, Fibroblast) it was 3.2%. In addition, the EC50 in test [1] (Homo sapiens) was above 10000 nM; in test [2], 18 nM; in test [3], 337 nM; in test [4] (Homo sapiens, PBMC) it was above 10000 nM; in test [5] (Homo sapiens, 96 h) it was above 10000 nM; in test [6] (Homo sapiens), 3400 nM. The molecule further had a concentration for a half-maximal effect (EC50) in test [7] (Homo sapiens, Fibroblast, 96 h) above 10000 nM.
